Experimental data: US8357833B2, “Corn plants and seed enhanced for asparagine and protein” (priority 2007, dated 2013)

Experiments:
[1] = target: T1, Zea mays asparagine synthetase Zm AsnS3 (SEQ ID NO: 6, encoded by SEQ ID NO: 5) (Zea mays, UniProt B5U8J8); assay: Kinetics of recombinant his-tagged, refolded maize asparagine synthetase AsnS3 (substrate titration, asparagine by HPLC); assay type: biochemical; settings: 100 mM Hepes, pH 8.0, 10 mM MgCl2, read-out: Km(NH4^+)
T1 construct: 588 aa
T1 sequence (B5U8J8 1-588): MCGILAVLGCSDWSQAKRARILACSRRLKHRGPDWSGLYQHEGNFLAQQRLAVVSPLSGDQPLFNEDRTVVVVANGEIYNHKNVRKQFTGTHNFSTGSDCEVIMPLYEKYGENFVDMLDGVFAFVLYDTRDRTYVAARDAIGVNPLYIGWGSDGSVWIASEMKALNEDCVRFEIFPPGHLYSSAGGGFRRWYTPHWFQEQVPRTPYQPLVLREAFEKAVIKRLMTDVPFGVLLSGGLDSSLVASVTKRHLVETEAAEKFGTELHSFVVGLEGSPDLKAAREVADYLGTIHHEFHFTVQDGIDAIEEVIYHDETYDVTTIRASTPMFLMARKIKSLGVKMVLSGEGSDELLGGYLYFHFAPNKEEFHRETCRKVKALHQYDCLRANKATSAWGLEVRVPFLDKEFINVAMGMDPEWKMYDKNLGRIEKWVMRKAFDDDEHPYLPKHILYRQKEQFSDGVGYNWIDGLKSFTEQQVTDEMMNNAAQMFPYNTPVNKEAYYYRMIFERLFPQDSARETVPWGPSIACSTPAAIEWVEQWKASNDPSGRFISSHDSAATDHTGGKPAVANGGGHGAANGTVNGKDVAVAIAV
Procedure: The effect of expression of asparagine synthetase genes on asparagine synthetase activity was measured in transgenic events of pMON79706 and pMON92870. Frozen, ground leaf tissue was aliquoted (200-400 mg) into wells from a precooled 96 deep-well plate. Protein was extracted in Buffer A (100 mM Hepes-OH, pH 8.0, 0.1 mM EDTA, 10 mM MgCl2, 2 mM aspartate, 0.5 mM DTT, 67 mM mercaptoethanol, 20% (v/v) glycerol, 0.1 mM ATP, 1% (v/v) P9599 (Sigma Company), 25 mM KCl). A small amount of sand was added to each well. Buffer A was then added to the leaf tissue in the wells at a ratio of 4:1 (buffer:tissue). The plates were then agitated in a paint shaker for 2 min. to mix the sample and then centrifuged at 5000×g for 10 minutes. The supernatant (100-200 μL) was desalted in a 96-well macro spin plate (SNS S025L, The Nest Group Inc., Southboro, Mass.) equilibrated in buffer A. The supernatant was then either assayed immediately or frozen in liquid nitrogen and maintained at −80° C. until used. […] The mixture was then filtered to remove precipitate and asparagine was measured by HPLC. […]

[2] = target: T2, Zea mays asparagine synthetase Zm AsnS4 (SEQ ID NO: 51, encoded by SEQ ID NO: 50) (Zea mays, UniProt B5U8J9); assay: Kinetics of recombinant his-tagged, refolded maize asparagine synthetase AsnS4 (substrate titration, asparagine by HPLC); assay type: biochemical; settings: 100 mM Hepes, pH 8.0, 10 mM MgCl2, read-out: Km(NH4^+)
T2 construct: 588 aa
T2 sequence (B5U8J9 1-588): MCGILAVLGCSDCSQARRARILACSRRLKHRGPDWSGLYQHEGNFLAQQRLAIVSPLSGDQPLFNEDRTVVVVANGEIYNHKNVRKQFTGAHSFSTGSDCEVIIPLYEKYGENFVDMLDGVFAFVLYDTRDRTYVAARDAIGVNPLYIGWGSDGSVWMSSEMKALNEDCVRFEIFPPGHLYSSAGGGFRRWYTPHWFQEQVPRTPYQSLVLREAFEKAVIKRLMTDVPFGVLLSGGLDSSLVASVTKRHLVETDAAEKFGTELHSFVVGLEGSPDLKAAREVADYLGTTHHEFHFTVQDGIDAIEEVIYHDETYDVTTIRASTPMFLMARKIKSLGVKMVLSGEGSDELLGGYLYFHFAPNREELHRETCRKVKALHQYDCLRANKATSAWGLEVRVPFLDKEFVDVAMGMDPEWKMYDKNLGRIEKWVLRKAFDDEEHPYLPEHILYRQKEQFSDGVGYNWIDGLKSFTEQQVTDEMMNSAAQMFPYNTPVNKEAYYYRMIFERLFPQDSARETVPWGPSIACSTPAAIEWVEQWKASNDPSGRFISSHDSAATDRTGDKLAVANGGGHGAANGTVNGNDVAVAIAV
Procedure: The effect of expression of asparagine synthetase genes on asparagine synthetase activity was measured in transgenic events of pMON79706 and pMON92870. Frozen, ground leaf tissue was aliquoted (200-400 mg) into wells from a precooled 96 deep-well plate. Protein was extracted in Buffer A (100 mM Hepes-OH, pH 8.0, 0.1 mM EDTA, 10 mM MgCl2, 2 mM aspartate, 0.5 mM DTT, 67 mM mercaptoethanol, 20% (v/v) glycerol, 0.1 mM ATP, 1% (v/v) P9599 (Sigma Company), 25 mM KCl). A small amount of sand was added to each well. Buffer A was then added to the leaf tissue in the wells at a ratio of 4:1 (buffer:tissue). The plates were then agitated in a paint shaker for 2 min. to mix the sample and then centrifuged at 5000×g for 10 minutes. The supernatant (100-200 μL) was desalted in a 96-well macro spin plate (SNS S025L, The Nest Group Inc., Southboro, Mass.) equilibrated in buffer A. The supernatant was then either assayed immediately or frozen in liquid nitrogen and maintained at −80° C. until used. To assay asparagine synthetase activity, desalted protein extracts (10-50 μL) were added to wells containing 100 μL assay solution (100 mM Hepes, pH 8.0, 10 mM MgCl2, 2 mM aspartate, 5 mM DTT, 10 mM ATP, 1 mM amino(oxy)acetic acid (aspartate amino transferase inhibitor), 1 mM aspartic semialdehyde (asparaginase inhibitor). To start the reaction, glutamine (final concentration of 2 mM for standard assay) was added to the solution, which was then mixed. The assay mixture was then incubated for 1 to 2 hours. The reaction was then stopped by the addition of an equal volume of 20% (w/v) trichloroacetic acid. The mixture was then filtered to remove precipitate and asparagine was measured by HPLC. Sample size was increased from 0.5 μL to 2.5 μL for HPLC, excitation wavelength was reduced from 340 nm to 235 nm, and fluorimeter gain was increased from 10 to 13. […]

## N [NH4^+]
[1]
  Km: 8.4 mM
[2]
  Km: 9 mM
